Test results published in PubChem BioAssay (NCI).
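Compound exposure: 48 hours, 5 concentrations, 96-well plates. TGI denotes the concentration required for complete inhibition of growth.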

Key:
Test in all cases: NCI anticancer screen, dose series, 48 h
[1] = system: SK-MEL-28 melanoma
[2] = system: RPMI-8226 leukemia
[3] = system: MALME-3M melanoma
[4] = system: OVCAR-8 ovarian
[5] = system: K-562 leukemia
[6] = system: HOP-92 NSCLC
[7] = system: MDA-N
[8] = system: U251 CNS
[9] = system: COLO 205 colon
[10] = system: HL-60(TB) leukemia
[11] = system: HCT-116 colon
[12] = system: UACC-62 melanoma
[13] = system: SW-620 colon
[14] = system: UACC-257 melanoma
[15] = system: HCC-2998 colon
[16] = system: SK-MEL-2 melanoma
[17] = system: HS 578T breast
[18] = system: SK-OV-3 ovarian

Row | Compound | TGI [1] [µM] | TGI [2] [µM] | TGI [3] [µM] | TGI [4] [µM] | TGI [5] [µM] | TGI [6] [µM] | TGI [7] [µM] | TGI [8] [µM] | TGI [9] [µM] | TGI [10] [µM] | TGI [11] [µM] | TGI [12] [µM] | TGI [13] [µM] | TGI [14] [µM] | TGI [15] [µM] | TGI [16] [µM] | TGI [17] [µM] | TGI [18] [µM]
1 | N#C[C@@]12CCCC(=O)[C@@H]1[C@H]1CCC[C@H]12 | 35.3 | 32.3 | 32.3 | 47.5 | 37.7 | 38 | 38.4 | 35.5 | 45.7 | 34.1 | 30.8 | 58 | 45.2 | 36.2 | 31.7 | 43.3 | > 100 | 32.8
2 | CN(C)CCNC(=O)c1ccc(NCCCN(C)CCCNc2ccc(C(=O)NCCN(C)C)c3[nH]c4ccc([N+](=O)[O-])cc4c(=O)c23)c2c(=O)c3cc([N+](=O)[O-])ccc3[nH]c12 | 1.06 | 0.151 | 1.37 | 1.3 | 1.83 | 0.933 | 0.997 | 0.162 | 0.502 | 1.01 | 0.644 | 0.622 | 0.557 | 1.62 | 0.254 | 0.382 | > 100 | 1.35
3 | CCN(CC)CCSc1nc2c(c(=N)n1-c1ccccc1)c(=S)n(-c1ccccc1)c(=S)n2-c1ccccc1 | 16.5 | 1.02 | 3.18 | 3.54 | 2.5 | 2.88 | 6.55 | 6.4 | 3.51 | 1.29 | 4.69 | 3.16 | > 21.4 | 3.15 | 3.15 | 20.4 | > 90.9 | 15.5
4 | O=C(N/N=C\c1ccc([N+](=O)[O-])cc1)Nc1cccc2ccccc12 | > 100 | > 100 | > 82.5 | 34.7 | > 100 | 16.7 | > 100 | 23.6 | > 100 | > 31.6 | > 52.2 | > 49.8 | > 100 | > 100 | > 100 | 23.9 | 32 | 39
5 | COc1cc(C2SCC(=O)N2c2ccc(Cl)cc2)cc(I)c1O (stereo unspecified) | > 100 | > 100 | > 100 | > 100 | > 100 | > 100 | > 100 | > 100 | > 23.7 | > 100 | > 100 | > 28.5 | > 100 | > 100 | > 100 | > 100 | > 100 | > 100
6 | O=C1OC[C@@H]2Cc3c([nH]c4ccccc34)[C@@H](c3cc(O)c(O)c(O)c3)N12 | 42.9 | 65.8 | 49.7 | 41.8 | 58.7 | > 100 | 82.5 | 59.8 | 42.6 | 15 | 61.5 | 75.5 | 53.4 | 9.73 | > 100 | 18.9 | 76.2 | > 100
7 | COc1cc(C(=O)Nc2c3ccccc3nc3ccccc23)cc(OC)c1OC | > 100 | > 100 | > 100 | > 100 | > 100 | > 100 | > 100 | > 100 | > 100 | 5.58 | > 100 | > 100 | > 100 | > 100 | > 100 | > 100 | > 100 | > 100
8 | N=c1oc2ccc(Cl)cc2cc1C(=O)NCc1ccccc1 | > 100 | > 100 | > 100 | > 100 | > 70.4 | > 100 | > 100 | > 100 | > 100 | 36.8 | > 100 | > 100 | > 100 | > 100 | > 100 | > 100 | > 80.5 | > 100
9 | CC(=O)c1c(-c2ccccc2)c(-c2ccc(OCCN(C)C)cc2)n2ccccc12 | 28.6 | 60.2 | 24.4 | 31 | > 100 | 23.1 | 29.2 | 31.3 | 27 | 36.3 | 26 | 30.7 | 32 | 28.9 | 27.7 | 33.3 | 42.2 | 38.2
10 | NCCCc1c(-c2ccccc2)nc(N)[nH]c1=O | > 100 | > 100 | > 100 | > 100 | > 100 | > 100 | > 100 | > 100 | > 100 | > 100 | > 100 | > 100 | > 100 | > 100 | > 100 | > 100 | > 100 | > 100
11 | CC1=C(C(=O)Nc2ccccc2)C(c2ccc(C)o2)C(C#N)=C(SCc2ccccc2)N1 (stereo unspecified) | > 100 | > 100 | > 100 | > 100 | > 100 | > 66.4 | > 92.9 | > 100 | > 100 | > 100 | > 100 | > 100 | > 100 | > 100 | > 100 | > 100 | > 100 | > 100
12 | Cc1ccc(O)c(-c2csc(NCN3CCN(CNc4nc(-c5cc(C)ccc5O)cs4)CC3)n2)c1 | > 100 | > 100 | > 100 | > 100 | > 100 | > 100 | > 100 | > 100 | > 100 | > 100 | > 100 | > 100 | > 100 | > 100 | > 100 | > 100 | > 100 | > 100
13 | Cc1ccc2cccc3c2c1CC1(C3=O)S(=O)(=O)OCCOS1(=O)=O | > 100 | > 100 | > 100 | > 100 | > 100 | > 100 | > 100 | > 100 | > 100 | > 100 | > 100 | > 100 | > 100 | > 100 | > 100 | > 100 | > 100 | > 100
14 | COC(OC)(c1ccccc1)C(I)I | 30.7 | > 100 | 13.3 | 35.1 | > 35.4 | 26.7 | 22.6 | 33 | 24.2 | 20.4 | 18.1 | 26.6 | > 37.1 | 8.73 | > 58.3 | 35.4 | 62.4 | 16.7
15 | CC(C)(C)OC(=O)NC(Cc1ccc(OCc2ccccc2)cn1)C(=O)N1CCSCC1 (stereo unspecified) | > 100 | 59.1 | > 100 | > 100 | > 100 | > 100 | > 100 | > 100 | 33.1 | 81.1 | > 100 | > 100 | > 100 | 82.5 | > 100 | > 100 | > 100 | > 100
16 | COc1ccccc1N=N/C(=N/NC(=O)c1ccc(C)cc1)c1ccc(N(CCC#N)CCC#N)cc1OC | > 100 | 33.5 | 81.9 | > 100 | > 100 | 95.1 | 53.5 | > 100 | 31.1 | 26.5 | 59.9 | > 100 | > 100 | > 100 | > 100 | 39.5 | > 100 | > 100
17 | Cc1ccc(/C=N/NC2=NCCN2)s1 | > 100 | > 100 | > 100 | > 100 | > 100 | > 100 | > 100 | > 100 | > 100 | > 100 | > 100 | > 100 | > 100 | > 100 | > 100 | > 100 | > 100 | > 100
18 | O=c1[nH]c2ccc(CC(=S)N3CCN(c4ccccc4)CC3)cc2o1 | > 100 | > 100 | > 100 | > 100 | > 100 | > 100 | > 76.7 | > 100 | > 100 | > 100 | > 100 | > 100 | > 100 | > 100 | > 100 | > 100 | > 100 | > 100
19 | O=C(N/N=C\c1ccc([N+](=O)[O-])cc1)c1ccccc1Nc1ccccc1C(=O)N/N=C/c1ccc([N+](=O)[O-])cc1 | > 100 | > 100 | > 100 | > 100 | > 100 | > 100 | > 100 | > 100 | > 100 | > 100 | > 100 | > 100 | > 100 | > 100 | > 100 | > 100 | > 100 | > 100
20 | N#CC(N=Nc1ccccc1)c1nc2ccccc2o1 (stereo unspecified) | > 100 | > 100 | > 100 | 79.4 | > 100 | 46.7 | > 100 | 59.5 | 68.7 | > 100 | 57.5 | > 100 |  | > 100 | > 100 | 70.5 | 66.8 | 68
21 | CC1(C)C(=O)C2(OS(=O)(=O)C(F)(F)F)CCC1C2 (stereo unspecified) | > 100 | > 100 | > 100 | > 100 | > 100 | > 100 | > 100 | > 100 | > 100 | > 100 | > 100 | > 100 | > 100 | > 100 | > 100 | > 100 | > 100 | > 100
22 | O=C(/C=C/c1cccs1)c1cccc(C(=O)/C=C/c2cccs2)n1 | > 100 | 16 | > 100 | 19.6 | > 100 | > 100 | > 100 | > 75.8 | > 100 | 43 | 11.3 | > 100 | 15.6 | > 100 | > 100 | > 100 | > 94.8 | > 100
23 | COc1ccc(C(C#N)NCCCCCCNC(C#N)c2ccc(OC)cc2)cc1 (stereo unspecified) | > 100 | > 100 | > 100 | > 100 | > 100 | > 100 | > 100 | > 100 | > 100 | > 100 | > 100 | > 100 | > 100 | > 100 | > 100 | > 100 | > 100 | > 100
24 | O=C(CN1CCOCC1)CC(O)(C(F)(F)F)C(F)(F)F | > 100 | > 100 | > 100 | > 100 | > 100 | 97.2 | > 100 | > 100 | > 100 | > 100 | > 100 | > 100 | > 100 | > 100 | > 100 | > 100 | > 100 | > 100
25 | Clc1ccc2c(NCCNc3ccnc4cc(Cl)ccc34)ccnc2c1 | 32.5 | 42 | > 100 | 43.1 | 28.2 | 38.5 | 31.6 | 32.1 | 30.1 | 31 | 33.1 | 33.1 | 31.3 | 32.3 | 28.5 | 34.4 | > 100 | 31.5
26 | COc1ccc(CCc2ccc(O)c(C(=O)O)c2)cc1OC | > 100 | > 100 | > 100 | > 100 | > 100 | > 100 | > 100 | > 100 | > 100 | > 100 | > 100 | > 100 |  | > 100 | > 100 | > 100 | > 100 | > 100
